Data from US8211903B2, “Substituted pyrimido isoquinoline derivatives” (Mitsubishi Tanabe Pharma Corporation, priority 2008, dated 2012).
Structures can show the parent of a compound that is named as a salt.

Target: GSK3β (Homo sapiens, UniProt P49841)
Sequence (P49841 whole entry): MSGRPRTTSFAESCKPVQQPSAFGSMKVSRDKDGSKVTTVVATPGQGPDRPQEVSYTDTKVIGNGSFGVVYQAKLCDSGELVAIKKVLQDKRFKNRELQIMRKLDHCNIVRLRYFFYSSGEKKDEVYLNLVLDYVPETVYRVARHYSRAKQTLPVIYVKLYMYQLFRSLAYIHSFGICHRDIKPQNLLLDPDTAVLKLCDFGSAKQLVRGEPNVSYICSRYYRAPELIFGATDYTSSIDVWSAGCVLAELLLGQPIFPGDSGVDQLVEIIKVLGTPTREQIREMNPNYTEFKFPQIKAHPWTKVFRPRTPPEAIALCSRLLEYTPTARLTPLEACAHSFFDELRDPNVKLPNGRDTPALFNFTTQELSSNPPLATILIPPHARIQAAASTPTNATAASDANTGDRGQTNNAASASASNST
Test: Inhibitory activity against GSK3β (33P-ATP phosphorylation of prephosphorylated GS1 peptide)
Assay type: biochemical
Details: protocol 3: 7.5 μM GS1 peptide, 10 μM ATP, 50 mM Hepes pH 7.2, one hour at room temperature
Description: Four different protocols can be used.
In a first protocol: 7.5 μM of prephosphorylated GS1 peptide and 10 μM ATP (containing 300,000 cpm of ^33P-ATP) were incubated in 25 mM Tris-HCl, pH 7.5, 0.6 mM DTT, 6 mM MgCl2, 0.6 mM EGTA, 0.05 mg/ml BSA buffer for 1 hour at room temperature in the presence of GSK3beta (total reaction volume: 100 microliters).
In a second protocol: 4.1 μM of prephosphorylated GS1 peptide and 42 μM ATP (containing 260,000 cpm ^33P-ATP) were incubated in 80 mM Mes-NaOH, pH 6.5, 1 mM Mg acetate, 0.5 mM EGTA, 5 mM 2-mercaptoethanol, 0.02% Tween 20, 10% glycerol buffer for 2 hours at room temperature in the presence of GSK3beta.
In a third protocol: 7.5 μM of prephosphorylated GS1 peptide and 10 μM ATP (containing 300,000 cpm of ^33P-ATP) were incubated in 50 mM Hepes, pH 7.2, 1 mM DTT, 1 mM MgCl2, 1 mM EGTA, 0.01% Tween 20 buffer for one hour at room temperature in the presence of GSK3beta (total reaction volume: 100 microliters). […]
The reaction was stopped with 100 microliters of a solution made of 25 g polyphosphoric acid (85% P2O5), 126 ml 85% H3PO4, H2O to 500 ml and then diluted to 1:100 before use. […] Incorporated ^33P radioactivity was determined by liquid scintillation spectrometry. […]
`O=c1cc(-c2ccncc2)nc2c3ccccc3ccn12` [compound 1, 2-Pyridin-4-yl-pyrimido[2,1-a]isoquinolin-4-one] showed an IC50 of 0.33 µM.
`Nc1cccc2c1ccn1c(=O)cc(-c3ccncc3)nc21` [compound 5, 8-Amino-2-pyridin-4-yl-pyrimido[2,1-a]isoquinolin-4-one] gave an IC50 of 0.17 µM.

Test system: not given
Test: not given
Details: not given
Compound `O=c1cc(-c2ccncc2)nc2c3cccc([N+](=O)[O-])c3ccn12` (as salt: hydrochloride) [compound 4, 8-Nitro-2-pyridin-4-yl-pyrimido[2,1-a]isoquinolin-4-one] has a melting point of 270 to 272 °C.
`O=c1cc(-c2ccncc2)nc2c3cc(O)ccc3ccn12` (as salt: oxalate) [compound 6, 10-Hydroxy-2-pyridin-4-yl-pyrimido[2,1-a]isoquinolin-4-one] showed a melting point of 368 to 370 °C.
In the case of `Nc1cccc2c1ccn1c(=O)cc(-c3ccncc3)nc21` [compound 5, 8-Amino-2-pyridin-4-yl-pyrimido[2,1-a]isoquinolin-4-one], the melting point is reported as 329 to 331 °C.
Work on `COc1ccc2ccn3c(=O)cc(-c4ccncn4)nc3c2c1` [compound 7, 10-Methoxy-2-pyrimidin-4-yl-pyrimido[2,1-a]isoquinolin-4-one] yielded a melting point of 302 to 304 °C.
In the case of `COc1cc2c(cc1OC)-c1nc(-c3ccncc3)cc(=O)n1CC2` [compound 9, 9,10-Dimethoxy-2-pyridin-4-yl-6,7-dihydro-pyrimido[2,1-a]isoquinolin-4-one], the melting point is reported as 271 to 273 °C.
